Results: the NIST ThermoML archive (doi:10.1016/j.tca.2015.05.015)
Numbers after ± are expanded uncertainties.

What was measured:
[1] = Crystal; DTA
[2] = Molar enthalpy of transition or fusion; details: Crystal; DSC

Normal melting temperature [1] [°C] | Molar enthalpy of transition or fusion [2] [kcal/mol] | SMILES
17 ± 5 | 12 ± 0.55 | CCCCCCCCCCCCCCCC [hexadecane]
25 ± 5 | 14.2 ± 0.598 | CCCCCCCCCCCCCCCCCC [octadecane]
